This note sets out measurements from ChEMBL document CHEMBL1144083, “Phenylvaleric acid and flavonoid glycosides from Polygonum salicifolium” (J Nat Prod, 1999).

Active and inactive are the calls of the source. No cut-off for these calls is given here.

What all share (format): functional
Assay [1] has as its system Radical scavenging activity. The assay is described as follows: Antioxidant activity assessed as DPPH free radical scavenging activity at 2 ug by TLC autographic assay.
For assay [2], the system named is Radical scavenging activity. The assay is described as follows: Antioxidant activity assessed as DPPH free radical scavenging activity at 4 ug by TLC autographic assay. On the technique in general: Loss of DPPH colour is used to gauge radical scavenging.
Assay [3] concerns Radical scavenging activity. The assay is described as follows: Antioxidant activity assessed as DPPH free radical scavenging activity at 6 ug by TLC autographic assay.
Assay [4] relates to Radical scavenging activity. The assay is described as follows: Antioxidant activity assessed as DPPH free radical scavenging activity at 8 ug by TLC autographic assay.
Assay [5] deals with Radical scavenging activity. As to the kind of experiment: Antioxidant activity assessed as DPPH free radical scavenging activity by TLC autographic assay.

For `O=c1c(O[C@@H]2O[C@H](CO)[C@@H](O)[C@H](O)[C@H]2O)c(-c2ccc(O)c(O)c2)oc2cc(O)cc(O)c12`, the result in assay [1], in assay [2], in assay [3] and in assay [4] was Active.
For `CCCCOC(=O)C[C@@H](CCc1ccccc1)O[C@H]1O[C@@H](CO)[C@H](O)[C@@H](O)[C@@H]1O`, the outcome in assay [5] was inactive.
In the case of `O=c1c(O[C@@H]2O[C@H](CO)[C@H](O)[C@H](O)[C@H]2O)c(-c2ccc(O)c(O)c2)oc2cc(O)cc(O)c12`, the outcome in assay [1], in assay [2], in assay [3] and in assay [4] was Active.
As for `O=C(O[C@H]1[C@H](Oc2c(-c3ccc(O)c(O)c3)oc3cc(O)cc(O)c3c2=O)O[C@H](CO)[C@@H](O)[C@@H]1O)c1cc(O)c(O)c(O)c1`, the outcome in assay [1], in assay [2], in assay [3] and in assay [4] was Active.
Consider `O=C(O)[C@H]1O[C@@H](Oc2c(-c3ccc(O)c(O)c3)oc3cc(O)cc(O)c3c2=O)[C@H](O)[C@@H](O)[C@@H]1O`, for which the result in assay [1], in assay [2], in assay [3] and in assay [4] was Active.
As for `O=C(O)C[C@@H](CCc1ccccc1)O[C@H]1O[C@@H](CO)[C@H](O)[C@@H](O)[C@@H]1O`, the result in assay [5] was inactive.
The same measure, in the same setting: the same measure for `COc1cc(O[C@@H]2O[C@H](CO[C@@H]3O[C@H](CO)[C@@H](O)[C@H](O)[C@H]3O)[C@@H](O)[C@H](O)[C@H]2O)c(OC)c(O)c1C(=O)CCc1ccccc1`: “inactive”.
